Key:
Format in all cases: in vivo
[1] = system: non-traited soybean (Glycine max, GLXMA); assay: Field selectivity trial soybean; conditions: 35 DAA
Excerpt: (§1) The respective (combinations of) materials were applied to weed plants in the greenhouse or in the field at the respective growth stage indicated hereinafter for the different weed species mentioned below. The respective (combinations of) active ingredients were also applied to corn, cotton and soybean crop plants, and the selectivity (damage) in these crop plants rated (assessed).
(§2) Visual scoring of the damage to the trial plants took place after the time mentioned in the respective Table—indicated in number of Days After Application (DAA). Damage and development of all above-ground parts of the respective plants was recorded. Visual rating was done on a percentage scale in relation to the untreated control (100%=all plants dead; 50%=green plant biomass reduced by 50%, and 0%=no discernible difference=like control plot).
(§3) The trials in the greenhouse were sprayed with an application volume of 300 L/ha with an automated track sprayer. The plots in the field were sprayed with an application volume of 140 L/ha with a hand held spray boom.
(§4) Phenmedipham and combinations of phenmedipham and mesotrione were applied at varying application rates (Dose Rate) to the crop plants of non-traited soybean (Glycine max, GLXMA) and corn (Zea mays, ZEAMX). The results are shown in Table 5 as the % damage when assessed 35 days after application (DAA), respectively.
(§5) In all the selectivity trials of Table 5 the adjuvant Mero® (rapeseed oil methyl ester) was added to the respective spray mixture in an amount corresponding to 1 L/ha for PMP, 1 L/ha for MST, and 2 L/ha for mixtures of PMP+MST.
(§6) The herbicidal effects observed for the herbicide(s) are indicated in % activity against the respective weed. The % damage (injury) indicated refers to the maximum damage observed.

corn (Zea mays, ZEAMX) = assay: Field selectivity trial corn; conditions: 35 DAA
Excerpt: as §1, §2, §3, §4, §5, §6

ELEIN=Eleusine indica = assay: Weed control field trial ELEIN
Excerpt: as §1, §2, §3
(§7) wherein • A, B=respective value in percent of active ingredient A at a dose rate of a g/ha, ingredient B at a dose rate of b g/ha • E^C=Expected value according to Colby (S. R. Colby; Weeds 15 (1967), 20-22) in % at a dose rate of a+b, each in g/ha • Δ=Difference (in %) between measured value E and expected value E^C (%) (measured value minus expected value)
(§8) The growth stages of the different weed species are indicated according to the BBCH monograph “Growth stages of mono- and dicotyledonous plants”, 2nd edition, 2001, ed. Uwe Meier, Federal Biological Research Centre for Agriculture and Forestry (Biologische Bundesanstalt für Land und Forstwirtschaft).
(§9) After the harmful plants had emerged, they were treated, at the respective growth stage indicated, with the respective materials as indicated at a water application rate of 140 L/ha.
(§10) After the treatment (21 or 35 days after application of the respective material), the herbicidal activity of respective material was scored visually at the same time by comparing the differently treated plots with the untreated control plots. The score figures of the different plots were averaged.
(§11) The dose rates of herbicidal ingredients used in each case are indicated for the respective active ingredient and refer to the amount of active ingredient per hectare (g/ha).
(§12) The weed control activity of different (combinations of) herbicidal active ingredients was investigated in field trials for the following weed species: • AMAVI=Amaranthus viridis • IPOAO=Ipomoea aristolochiaefolia • EPHHL=Euphorbia heterophylla • BIDPI=Bidens pilosa • BRADC=Brachiaria decumbens • ELEIN=Eleusine indica • CCHEC=Cenchrus echinatus
(§13) The growth stage of AMAVI was BBCH 13, the growth stage of IPOAO was BBCH 15, the growth stage of EPHHL was BBCH 13, the growth stage of BIDPI was BBCH 14, the growth stage of BRADC was BBCH 23, the growth stage of ELEIN was BBCH 11 and the growth stage of CCHEC was BBCH 12 at the time of application of the respective material.
(§14) Phenmedipham and Mesotrione were applied at varying application rates (Dose Rate) to the different species of weed plants. The results are shown in Tables 3a to 3e as the % control when assessed 21 and 35 days after application (DAA), respectively.
(§15) In all the trials of Tables 3a to 3e Mero® (rapeseed oil methyl ester) was added to the respective spray mixture in an amount corresponding to 1 L/ha for PMP, 1 L/ha for MST, and 2 L/ha for mixtures of PMP+MST.

[2] = system: IPOAO=Ipomoea aristolochiaefolia; assay: Weed control field trial IPOAO
Excerpt: as §1, §2, §3, §7, §8, §9, §10, §11, §12, §13, §14, §15

PANRA=Panicum ramosum = assay: Weed control field trial PANRA; conditions: 15 DAA
Excerpt: as §1, §2, §7
After the harmful plants had emerged, they were treated, at the respective growth stage indicated, with the respective materials as indicated at a water application rate of 187 L/ha.
After the treatment (15 days after the treatment), the herbicidal activity of respective material was scored visually at the same time by comparing the differently treated plots with the untreated control plots. The score figures of the different plots were averaged.
as §11
The weed control activity of different (combinations of) herbicidal active ingredients was investigated in field trials for the following weed species: • AMARE=Amaranthus retroflexus • KCHSC=Kochia scoparia • PANRA=Panicum ramosum
The growth stage of AMARE was BBCH 19, the growth stage of KCHSC was BBCH 19 and the growth stage of PANRA was BBCH 22 at the time of application of the respective material.
Phenmedipham and the respective aroylcyclohexanedione herbicide were applied at varying application rates (Dose Rate) to the different species of weed plants. The results are shown in Tables 4a to 4d as the % control when assessed 15 days after application (DAA), respectively.
In all the trials of Tables 4a to 4d Mero® (rapeseed oil methyl ester) was added to the respective spray mixture in an amount corresponding to 1 L/ha for PMP, 1 L/ha for the respective aroylcyclohexanedione herbicide, and 2 L/ha for mixtures of PMP+the respective aroylcyclohexanedione herbicide.

BIDPI=Bidens pilosa = assay: Weed control field trial BIDPI
Excerpt: as §1, §2, §3, §7, §8, §9, §10, §11, §12, §13, §14, §15

## COC(=O)Nc1cccc(OC(=O)Nc2cccc(C)c2)c1 [PMP, 3-[(methoxyformyl)amino]phenyl (3-methylphenyl)carbamate]
[1]; 75 g/ha
  maximum damage GLXMA: 10%
[1]; 125 g/ha
  maximum damage GLXMA: 15%
[1]; 250 g/ha
  maximum damage GLXMA: 14%
Corn (Zea mays, ZEAMX); 75 g/ha
  maximum damage ZEAMX: 6%
Corn (Zea mays, ZEAMX); 125 g/ha
  maximum damage ZEAMX: 6%
Corn (Zea mays, ZEAMX); 250 g/ha
  maximum damage ZEAMX: 6%
ELEIN=Eleusine indica; 75 g/ha, 21 DAA
  % control ELEIN: 0%
ELEIN=Eleusine indica; 75 g/ha, 35 DAA
  % control ELEIN: 0%
ELEIN=Eleusine indica; 100 g/ha, 21 DAA
  % control ELEIN: 0%
ELEIN=Eleusine indica; 100 g/ha, 35 DAA
  % control ELEIN: 0%
ELEIN=Eleusine indica; 125 g/ha, 21 DAA
  % control ELEIN: 0%
ELEIN=Eleusine indica; 125 g/ha, 35 DAA
  % control ELEIN: 0%
ELEIN=Eleusine indica; 250 g/ha, 21 DAA
  % control ELEIN: 0%
ELEIN=Eleusine indica; 250 g/ha, 35 DAA
  % control ELEIN: 0%
[2]; 75 g/ha, 21 DAA
  % control IPOAO: 0%
[2]; 75 g/ha, 35 DAA
  % control IPOAO: 0%
[2]; 100 g/ha, 21 DAA
  % control IPOAO: 0%
[2]; 100 g/ha, 35 DAA
  % control IPOAO: 0%
[2]; 125 g/ha, 21 DAA
  % control IPOAO: 0%
[2]; 125 g/ha, 35 DAA
  % control IPOAO: 0%
[2]; 250 g/ha, 21 DAA
  % control IPOAO: 0%
[2]; 250 g/ha, 35 DAA
  % control IPOAO: 0%
PANRA=Panicum ramosum; 150 g/ha
  % control PANRA: 0%
PANRA=Panicum ramosum; 300 g/ha
  % control PANRA: 5%
BIDPI=Bidens pilosa; 75 g/ha, 21 DAA
  % control BIDPI: 0%
BIDPI=Bidens pilosa; 75 g/ha, 35 DAA
  % control BIDPI: 0%
BIDPI=Bidens pilosa; 100 g/ha, 21 DAA
  % control BIDPI: 0%
BIDPI=Bidens pilosa; 100 g/ha, 35 DAA
  % control BIDPI: 0%
BIDPI=Bidens pilosa; 125 g/ha, 21 DAA
  % control BIDPI: 0%
BIDPI=Bidens pilosa; 125 g/ha, 35 DAA
  % control BIDPI: 0%
BIDPI=Bidens pilosa; 250 g/ha, 21 DAA
  % control BIDPI: 0%
BIDPI=Bidens pilosa; 250 g/ha, 35 DAA
  % control BIDPI: 0%

## CS(=O)(=O)c1ccc(C(=O)C2C(=O)CCCC2=O)c([N+](=O)[O-])c1 [MST, 2-[4-(methylsulfonyl)-2-nitrobenzoyl]cyclohexane-1,3-dione]
[1]; 25 g/ha
  maximum damage GLXMA: 12%
[1]; 50 g/ha
  maximum damage GLXMA: 29%
Corn (Zea mays, ZEAMX); 25 g/ha
  maximum damage ZEAMX: 0%
Corn (Zea mays, ZEAMX); 50 g/ha
  maximum damage ZEAMX: 0%
ELEIN=Eleusine indica; 25 g/ha, 21 DAA
  % control ELEIN: 0%
ELEIN=Eleusine indica; 25 g/ha, 35 DAA
  % control ELEIN: 0%
ELEIN=Eleusine indica; 50 g/ha, 21 DAA
  % control ELEIN: 17%
ELEIN=Eleusine indica; 50 g/ha, 35 DAA
  % control ELEIN: 17%
[2]; 25 g/ha, 21 DAA
  % control IPOAO: 0%
[2]; 25 g/ha, 35 DAA
  % control IPOAO: 0%
[2]; 50 g/ha, 21 DAA
  % control IPOAO: 17%
[2]; 50 g/ha, 35 DAA
  % control IPOAO: 0%
PANRA=Panicum ramosum; 20 g/ha
  % control PANRA: 15%
BIDPI=Bidens pilosa; 25 g/ha, 21 DAA
  % control BIDPI: 80%
BIDPI=Bidens pilosa; 25 g/ha, 35 DAA
  % control BIDPI: 80%
BIDPI=Bidens pilosa; 50 g/ha, 21 DAA
  % control BIDPI: 80%
BIDPI=Bidens pilosa; 50 g/ha, 35 DAA
  % control BIDPI: 80%

From patent publication US20250040554A1, “NEW USES OF PHENMEDIPHAM AND HERBICIDAL COMBINATIONS COMPRISING PHENMEDIPHAM” (BAYER AKTIENGESELLSCHAFT, priority 2021, published 2025)
